The term solubility denotes how much of the substance goes into solution per volume.

The nature of the series: physchem. The conditions noted are these: for % Drug Solubilized: pH 3.9; for Sw/So: pH 4; for solubility: water. As to the method: The heterogeneous mixture was mixed well before carefully adjusting the pH with 0.1 N NaOH until the CA dissolved giving a clear solution. […] Four independent aqueous CA solutions were prepared by this process. […] The ethanol solution of each drug was then added slowly to the aqueous CA solutions previously prepared.
All of the samples were filtered thru 0.45 micron syringe filters before measurement. […] Solutions of each of the oxidized CA:drug mixtures were also prepared in 50/50 ethanol/Millipore water. […] All samples were immediately analyzed for the amount of drug in the solution using an UV-Vis Spectrophotometer.

In brackets after ≈: the same amount, converted by molar mass.

Take `N#Cc1ccc(C(c2ccc(C#N)cc2)n2cncn2)cc1` [letrozole]: the “Sw (amount of drug solubilized)” value is listed as 0.1461 g/L/25 g of drug:CAOX, the “% Drug Solubilized” value is 7%, the Sw/So is on record as 1.2 and the solubility is 120 µg/mL (≈ 421 µM).

As for `CC(C)(C#N)c1cc(Cn2cncn2)cc(C(C)(C)C#N)c1` [anastrozole], the “Sw (amount of drug solubilized)” value is given as 1.2481 g/L/25 g of drug:CAOX, the “% Drug Solubilized” value turned out to be 90%, the Sw/So is given as 1.9 and the solubility was 650 µg/mL (≈ 2220 µM).

The values above are taken from patent US9150665B2, “Cellulose interpolymers and method of oxidation” (Eastman Chemical Company, priority 2003, dated 2015).
